The results in this text go back to patent publication US20090306133A1, “New Acetyl Coenzyme A Carboxylase (ACC) Inhibitors And Uses In Treatments Of Obesity And Diabetes Mellitus - 087” (ASTRAZENECA AB, priority 2007, published 2009).

pIC50: −log10 of the molar value.

Test [1] addresses Human recombinant Acetyl-CoA Carboxylase 2 (ACC2) (Homo sapiens, UniProt O00763). As to the kind of experiment: Assay Y: ACC2 inhibition, inorganic phosphate (Malachite Green). The class given is biochemical. The settings on record: Assay Y: room temperature, 3 hr, 15 min preincubation. Here is the method: (§1) Preincubation of 6 μL enzyme together with 0.3 μL compound for 15 min was done before the reaction was initiated by the addition of 4 μL substrate. […] After 3 hr the reaction was stopped by addition of 60 μL of water followed by 30 μL Malachite Green solution. The Malachite Green solution was prepared by mixing 16.4 mL ammonium molybdate solution (7.5%), 1.64 mL Tween (11%) with 82 mL Malachite Green/H2SO4-solution (0.7 g Malachite Green to 1000 mL of 10% (v/v) H2SO4). Plates were left for 10 min at room temperature before reading the absorbance at 670 nm. All compounds were tested in triplicate at 10 different concentrations. Control compound (0, 50 and 100% effect) was included on each plate. […] An IC50 value was derived by non-linear regression curve fitting using the following equation: […]))) where A is the non-specific binding, B is the total binding, C is the IC50 and D is the slope. Saturation binding Kd and Bmax were derived using the equation y=((B1 max*x)/(Kd+x)).

The target of test [2] is Human recombinant Acetyl-CoA Carboxylase 1 (ACC1) (Homo sapiens, UniProt Q13085). As to the kind of experiment: Assay Y: ACC1 inhibition, inorganic phosphate (Malachite Green). Type of test: biochemical. The settings on record: Assay Y: room temperature, 3 hr, 15 min preincubation. As for the experimental part: as §1

Human recombinant Acetyl-CoA Carboxylase 2 (ACC2), sequence (O00763 whole entry): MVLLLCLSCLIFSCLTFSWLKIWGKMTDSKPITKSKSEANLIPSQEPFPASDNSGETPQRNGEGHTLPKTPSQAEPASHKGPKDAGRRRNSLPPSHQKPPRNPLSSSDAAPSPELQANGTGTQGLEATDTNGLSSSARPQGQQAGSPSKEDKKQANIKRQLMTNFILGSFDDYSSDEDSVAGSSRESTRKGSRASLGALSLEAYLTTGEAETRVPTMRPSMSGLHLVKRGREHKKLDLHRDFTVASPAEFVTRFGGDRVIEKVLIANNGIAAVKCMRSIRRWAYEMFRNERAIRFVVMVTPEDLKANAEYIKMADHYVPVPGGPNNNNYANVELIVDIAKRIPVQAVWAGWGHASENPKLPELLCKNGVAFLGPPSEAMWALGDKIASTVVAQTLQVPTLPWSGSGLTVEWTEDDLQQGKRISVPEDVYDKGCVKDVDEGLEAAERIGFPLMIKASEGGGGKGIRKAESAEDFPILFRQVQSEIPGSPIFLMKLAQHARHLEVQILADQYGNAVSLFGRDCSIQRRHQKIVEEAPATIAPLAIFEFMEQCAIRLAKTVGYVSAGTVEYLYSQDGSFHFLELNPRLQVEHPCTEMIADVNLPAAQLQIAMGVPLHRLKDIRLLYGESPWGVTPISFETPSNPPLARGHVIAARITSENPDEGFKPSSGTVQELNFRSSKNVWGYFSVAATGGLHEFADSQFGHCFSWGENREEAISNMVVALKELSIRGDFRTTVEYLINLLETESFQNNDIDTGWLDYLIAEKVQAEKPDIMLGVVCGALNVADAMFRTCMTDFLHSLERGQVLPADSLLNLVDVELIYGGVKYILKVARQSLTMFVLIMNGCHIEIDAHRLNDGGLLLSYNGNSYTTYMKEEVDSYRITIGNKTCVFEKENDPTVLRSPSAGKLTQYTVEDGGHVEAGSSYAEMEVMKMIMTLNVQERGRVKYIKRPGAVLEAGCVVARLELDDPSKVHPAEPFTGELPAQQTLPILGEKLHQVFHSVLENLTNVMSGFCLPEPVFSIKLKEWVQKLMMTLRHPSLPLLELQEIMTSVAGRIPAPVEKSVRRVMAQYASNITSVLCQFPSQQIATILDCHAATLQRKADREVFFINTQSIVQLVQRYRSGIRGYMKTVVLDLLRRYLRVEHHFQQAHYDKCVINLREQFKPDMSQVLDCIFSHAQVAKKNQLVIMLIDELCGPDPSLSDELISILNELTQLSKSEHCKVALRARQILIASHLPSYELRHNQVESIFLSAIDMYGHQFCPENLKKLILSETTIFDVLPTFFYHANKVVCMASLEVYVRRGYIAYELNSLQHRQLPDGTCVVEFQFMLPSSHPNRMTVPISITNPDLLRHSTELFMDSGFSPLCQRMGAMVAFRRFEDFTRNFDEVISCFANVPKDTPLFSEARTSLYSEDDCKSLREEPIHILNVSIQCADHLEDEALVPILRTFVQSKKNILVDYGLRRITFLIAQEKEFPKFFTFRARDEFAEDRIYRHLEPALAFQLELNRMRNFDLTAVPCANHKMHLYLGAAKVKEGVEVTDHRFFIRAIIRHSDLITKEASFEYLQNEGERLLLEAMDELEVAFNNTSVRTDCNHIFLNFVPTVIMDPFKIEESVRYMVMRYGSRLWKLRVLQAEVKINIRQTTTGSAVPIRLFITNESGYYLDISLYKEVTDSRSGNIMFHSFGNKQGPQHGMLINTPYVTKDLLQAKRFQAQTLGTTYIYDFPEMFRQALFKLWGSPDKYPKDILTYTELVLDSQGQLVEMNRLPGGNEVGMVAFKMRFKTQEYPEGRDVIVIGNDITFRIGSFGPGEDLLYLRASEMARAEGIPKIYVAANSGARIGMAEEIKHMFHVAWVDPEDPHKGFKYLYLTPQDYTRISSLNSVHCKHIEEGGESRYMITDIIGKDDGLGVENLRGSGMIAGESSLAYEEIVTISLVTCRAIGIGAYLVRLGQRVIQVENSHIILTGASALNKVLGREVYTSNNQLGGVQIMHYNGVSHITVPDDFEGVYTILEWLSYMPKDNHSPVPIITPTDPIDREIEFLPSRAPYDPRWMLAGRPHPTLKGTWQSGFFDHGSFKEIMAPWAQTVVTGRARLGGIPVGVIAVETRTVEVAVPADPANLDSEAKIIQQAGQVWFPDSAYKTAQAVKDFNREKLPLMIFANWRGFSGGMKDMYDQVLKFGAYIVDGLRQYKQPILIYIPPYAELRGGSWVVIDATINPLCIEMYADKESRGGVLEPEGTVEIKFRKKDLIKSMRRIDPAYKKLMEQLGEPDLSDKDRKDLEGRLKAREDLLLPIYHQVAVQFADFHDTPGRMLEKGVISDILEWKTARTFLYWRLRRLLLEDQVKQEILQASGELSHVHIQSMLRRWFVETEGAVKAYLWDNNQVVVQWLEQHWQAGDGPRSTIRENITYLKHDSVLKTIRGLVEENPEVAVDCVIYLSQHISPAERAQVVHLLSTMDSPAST

As a reminder, the pIC50 is the IC50 on a negative log10 scale, so that one unit is a factor of ten. Regarding `Cc1ccc(-c2cc(C(=O)NC[C@H]3CC[C@H](CNC(=O)OC(C)(C)C)CC3)c3ccccc3n2)cc1` [Example 20, tert-Butyl ({trans-4-[({[2-(4-methylphenyl)quinolin-4-yl]carbonyl}amino)methyl]-cyclohexyl}methyl)carbamate], the negative logarithm of the IC50 (pIC50) in test [1] is 6.21; in test [2] it was 5.89.

As for `CC(C)(C)OC(=O)NC[C@H]1CC[C@H](CNC(=O)c2cc(-c3ccc(Cl)cc3)nc3ccccc23)CC1` [Example 21, tert-Butyl ({trans-4-[({[2-(4-chlorophenyl)quinolin-4-yl]carbonyl}amino)methyl]cyclo-hexyl}methyl)carbamate], the pIC50 is 6.01 in test [1] and 5.83 in test [2].

Consider `COc1cccc(-c2cc(C(=O)NC[C@H]3CC[C@H](CNC(=O)OC(C)(C)C)CC3)c3ccccc3n2)c1` [Example 22, tert-Butyl ({trans-4-[({[2-(3-methoxyphenyl)quinolin-4-yl]carbonyl}amino)-methyl]cyclohexyl}methyl)carbamate], for which the negative logarithm of the IC50 (pIC50) in test [1] was 6.51; in test [2] it was 6.00.

Turning to `COc1ccccc1-c1cc(C(=O)NC[C@H]2CC[C@H](CNC(=O)OC(C)(C)C)CC2)c2ccccc2n1` [Example 23, tert-Butyl ({trans-4-[({[2-(2-methoxyphenyl)quinolin-4-yl]carbonyl}amino)methyl]-cyclohexyl}methyl)carbamate], the pIC50 was 6.34 in test [1] and 5.49 in test [2].

Regarding `CSc1ccc(-c2cc(C(=O)NC[C@H]3CC[C@H](CNC(=O)OC(C)(C)C)CC3)c3ccccc3n2)cc1` [Example 24, tert-Butyl [(trans-4-{[({2-[4-(methylthio)phenyl]quinolin-4-yl}carbonyl)amino]-methyl}cyclohexyl)methyl]carbamate], the negative-log IC50 (pIC50) is 6.31 in test [1] and 5.87 in test [2].

`Cc1nc(C)c(-c2cc(C(=O)NC[C@H]3CC[C@H](CNC(=O)OC(C)(C)C)CC3)c3ccccc3n2)s1` [Example 25, tert-Butyl ({trans-4-[({[2-(2,4-dimethyl-1,3-thiazol-5-yl)quinolin-4-yl]carbonyl}amino)-methyl]cyclohexyl}methyl)carbamate]: the negative logarithm of the IC50 (pIC50) in test [1] is 6.85; in test [2] it was 5.77.

For `CCOC(=O)NC[C@H]1CC[C@H](CNC(=O)c2cc(-c3cnccn3)nc3ccccc23)CC1` [Example 26, Ethyl {[trans-4-({[(2-pyrazin-2-ylquinolin-4-yl)carbonyl]amino}methyl)cyclohexyl]-methyl}carbamate], the values for the pIC50 in test [1] and in test [2] were 5.39 and < 4.70, respectively.

Take `CCOC(=O)NC[C@H]1CC[C@H](CNC(=O)c2cc(-c3cccc(OC)c3)nc3ccccc23)CC1` [Example 27, Ethyl ({trans-4-[({[2-(3-methoxyphenyl)quinolin-4-yl]carbonyl}amino)methyl]cyclo-hexyl}methyl)carbamate]: the pIC50 is 5.93 in test [1] and 5.44 in test [2].

For `CCOC(=O)NC[C@H]1CC[C@H](CNC(=O)c2cc(-c3ccc(C)cc3)nc3ccccc23)CC1` [Example 28, Ethyl ({trans-4-[({[2-(4-methylphenyl)quinolin-4-yl]carbonyl}amino)methyl]cyclo-hexyl}methyl)carbamate], the pIC50 in test [1] was 5.93; in test [2], 5.22.

In the case of `CCOC(=O)NC[C@H]1CC[C@H](CNC(=O)c2cc(-c3ccc(SC)cc3)nc3ccccc23)CC1` [Example 29, Ethyl [(trans-4-{[({2-[4-(methylthio)phenyl]quinolin-4-yl}carbonyl)amino]methyl}-cyclohexyl)methyl]carbamate], the results for the pIC50 in test [1] and in test [2] were 5.90 and 5.39, respectively.

Take `CCOC(=O)NC[C@H]1CC[C@H](CNC(=O)c2cc(-c3ccc(OCC)cc3)nc3ccccc23)CC1` [Example 30, Ethyl ({trans-4-[({[2-(4-ethoxyphenyl)quinolin-4-yl]carbonyl}amino)methyl]-cyclohexyl}methyl)carbamate]: the negative-log IC50 (pIC50) is 5.89 in test [1] and < 4.70 in test [2].

Turning to `CCOC(=O)NC[C@H]1CC[C@H](CNC(=O)c2cc(-c3ccccc3OC)nc3ccccc23)CC1` [Example 31, Ethyl ({trans-4-[({[2-(2-methoxyphenyl)quinolin-4-yl]carbonyl}amino)methyl]-cyclohexyl}methyl)carbamate], the figures for the negative logarithm of the IC50 (pIC50) in test [1] and in test [2] were 5.45 and < 4.70, respectively.

For `CCOC(=O)NC[C@H]1CC[C@H](CNC(=O)c2cc(-c3ccc(Cl)cc3)nc3ccccc23)CC1` [Example 32, Ethyl ({trans-4-[({[2-(4-chlorophenyl)quinolin-4-yl]carbonyl}amino)methyl]cyclo-hexyl}methyl)carbamate], the figures for the pIC50 in test [1] and in test [2] were 5.76 and < 4.70, respectively.

Consider `CC(C)(C)OC(=O)NC[C@H]1CC[C@H](CNC(=O)c2cc(-c3cncnc3)nc3ccccc23)CC1` [Example 33, tert-Butyl {[trans-4-({[(2-pyrimidin-5-ylquinolin-4-yl)carbonyl]amino}methyl)cyclo-hexyl]methyl}carbamate], for which the pIC50 was 5.94 in test [1] and 5.45 in test [2].

For `CC(C)(C)OC(=O)NC[C@H]1CC[C@H](CNC(=O)c2cc(-c3ccc(C#N)cc3)nc3ccccc23)CC1` [Example 34, tert-Butyl ({trans-4-[({[2-(4-cyanophenyl)quinolin-4-yl]carbonyl}amino)methyl]cyclo-hexyl}methyl)carbamate], the pIC50 in test [1] is 6.66; in test [2] it was 5.93.

For `CC(C)(C)OC(=O)NC[C@H]1CC[C@H](CNC(=O)c2cc(Cl)nc3ccccc23)CC1` [Example 35, tert-butyl {[trans-4-({[(2-chloroquinolin-4-yl)carbonyl]amino}methyl)cyclohexyl]-methyl}carbamate], the pIC50 in test [1] was 5.42; in test [2], 5.00.

With `COc1cc(C(=O)NC[C@H]2CC[C@H](CNC(=O)OC(C)(C)C)CC2)cc(-c2ccc(CN)cc2)n1` [Example 36, tert-Butyl ({trans-4-[({2-[4-(aminomethyl)phenyl]-6-methoxyisonicotinoyl}-amino)methyl]cyclohexyl}methyl)carbamate], the pIC50 in test [1] was 5.80; in test [2], 5.40.

`CC(C)(C)OC(=O)NC[C@H]1CC[C@H](CNC(=O)c2cc(-c3ccc(CN)cc3)ncc2Cl)CC1` [Example 37, tert-Butyl ({trans-4-[({2-[4-(aminomethyl)phenyl]-5-chloroisonicotinoyl}amino)-methyl]cyclohexyl}methyl)carbamate]: the negative-log IC50 (pIC50) is 6.33 in test [1] and 5.43 in test [2].

Turning to `Cc1cc(C(=O)NC[C@H]2CC[C@H](CNC(=O)OC(C)(C)C)CC2)cc(-c2ccc(CN)cc2)n1` [Example 38, tert-Butyl ({trans-4-[({2-[4-(aminomethyl)phenyl]-6-methylisonicotinoyl}amino)-methyl]cyclohexyl}methyl)carbamate], the negative logarithm of the IC50 (pIC50) in test [1] is 5.39; in test [2] it was 5.26.

As for `CC(C)(C)OC(=O)NC[C@H]1CC[C@H](CNC(=O)c2cc(-c3cccc(CN)c3)nc3ccccc23)CC1` [Example 39, tert-Butyl [(trans-4-{[({2-[3-(aminomethyl)phenyl]quinolin-4-yl}carbonyl)amino]-methyl}cyclohexyl)methyl]carbamate], the pIC50 in test [1] is 7.70; in test [2] it was 6.66.
